Among the data in BindingDB's records for doi:10.1016/j.bmcl.2010.07.026 (Daiichi Sankyo, 2010) are IC50 values, retold here.

The structures appear in SMILES notation.

One may read the IC50 as the concentration that gives 50% inhibition.

The assay has as its target 3-phosphoinositide-dependent protein kinase 1 (Homo sapiens) (UniProt O15530). As to the kind of experiment: Inhibition of recombinant PDK1 after 15 mins.
Take `O=C(NCCN1CCCC1)c1ccc(-c2cnc3ccc(NCc4ccc(Cl)c(Cl)c4)nn23)cc1` [4-(6-(3,4-dichlorobenzylamino)imidazo[1,2-b]pyridazin-3-yl)-N-(2-(pyrrolidin-1-yl)ethyl)benzamide]: the IC50 was above 100 µM. For the compound `CN(C)CCNC(=O)c1ccc(-c2cnc3ccc(NCC4CC4)nn23)cc1` [4-(6-(cyclopropylmethylamino)imidazo[1,2-b]pyridazin-3-yl)-N-(2-(dimethylamino)ethyl)benzamide], the IC50 is above 100 µM.

Regarding `O=C(NC[C@@H]1CCCN1)c1ccc(-c2cnc3ccc(NCc4ccc(Cl)c(Cl)c4)nn23)cc1` [(S)-4-(6-(3,4-dichlorobenzylamino)imidazo[1,2-b]pyridazin-3-yl)-N-(pyrrolidin-2-ylmethyl)benzamide], the IC50 is above 100 µM. As to `O=C(NC[C@@H]1CCCN1)c1ccc(-c2cnc3ccc(NCc4cccc(Cl)c4)nn23)cc1` [(S)-4-(6-(3-chlorobenzylamino)imidazo[1,2-b]pyridazin-3-yl)-N-(pyrrolidin-2-ylmethyl)benzamide], the IC50 is above 100 µM. The figure for `O=C(NC[C@@H]1CCCN1)c1ccc(-c2cnc3ccc(NCC4CC4)nn23)cc1` [(S)-4-(6-(cyclopropylmethylamino)imidazo[1,2-b]pyridazin-3-yl)-N-(pyrrolidin-2-ylmethyl)benzamide] is above 100 µM.
